The values that follow come from patent US20260216067A1, “CARRIER AS A MULTIFUNCTIONAL SYSTEM” (LIFESOME THERAPEUTICS, S.L., priority 2022, published 2026).

Data set [1] is described as follows: ADME studies, distribution. Format: in vivo.
In data set [2] the test system is SK3-expressing cancer cells. As to conditions: at 10 nM; cited from earlier work.
For data set [3] the following is noted: Ames tests; cited from earlier work.
For data set [4] the following is noted: cited from earlier work.
The conditions of data set [5]: cited from earlier work. The source holds these as a separate data set.
For data set [6] the following is noted: 15 mg/Kg, up to 4 months treatment; cited from earlier work.
Data set [7] concerns the target SK3 channel (Homo sapiens, UniProt Q9UGI6). As to conditions: cited from earlier work.
For data set [8], the target named is IKCa/SK4 channel (Homo sapiens, UniProt O15554). The settings on record: cited from earlier work.
Chain of IKCa/SK4 channel (O15554 whole entry): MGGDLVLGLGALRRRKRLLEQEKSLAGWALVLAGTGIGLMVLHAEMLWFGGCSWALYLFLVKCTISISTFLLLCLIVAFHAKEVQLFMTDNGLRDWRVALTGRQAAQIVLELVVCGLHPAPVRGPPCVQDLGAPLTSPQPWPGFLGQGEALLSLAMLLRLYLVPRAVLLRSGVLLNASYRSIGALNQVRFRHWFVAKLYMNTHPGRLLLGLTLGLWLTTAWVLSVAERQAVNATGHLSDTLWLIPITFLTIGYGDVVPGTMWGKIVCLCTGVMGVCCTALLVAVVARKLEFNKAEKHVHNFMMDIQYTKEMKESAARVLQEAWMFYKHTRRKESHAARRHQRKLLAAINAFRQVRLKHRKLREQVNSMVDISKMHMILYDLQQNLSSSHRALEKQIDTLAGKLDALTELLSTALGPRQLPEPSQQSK
In data set [9] the target is SK2 channel (Homo sapiens, UniProt Q9H2S1). As to conditions: cited from earlier work.
Chain of SK2 channel (Q9H2S1 whole entry): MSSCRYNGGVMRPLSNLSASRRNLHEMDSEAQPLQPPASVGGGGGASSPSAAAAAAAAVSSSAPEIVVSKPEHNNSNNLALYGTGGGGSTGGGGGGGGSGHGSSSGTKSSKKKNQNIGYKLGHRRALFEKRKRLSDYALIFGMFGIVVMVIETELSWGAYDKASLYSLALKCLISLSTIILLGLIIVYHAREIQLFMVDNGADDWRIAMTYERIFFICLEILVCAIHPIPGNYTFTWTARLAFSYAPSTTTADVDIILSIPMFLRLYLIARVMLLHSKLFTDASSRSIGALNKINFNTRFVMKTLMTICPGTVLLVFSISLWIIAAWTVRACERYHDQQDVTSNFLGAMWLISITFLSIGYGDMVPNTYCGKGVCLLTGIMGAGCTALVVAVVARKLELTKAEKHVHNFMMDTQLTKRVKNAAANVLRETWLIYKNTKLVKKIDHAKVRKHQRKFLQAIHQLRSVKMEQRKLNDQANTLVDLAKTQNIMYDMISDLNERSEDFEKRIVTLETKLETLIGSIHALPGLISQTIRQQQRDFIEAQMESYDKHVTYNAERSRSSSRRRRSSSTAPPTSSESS
Data set [10] concerns SKCa channels. The settings on record: cited from earlier work.
Data set [11] deals with protein kinase C (PKC). As to conditions: cited from earlier work.
Data set [12] concerns the target receptors for platelet activating factor (PAF) (Homo sapiens, UniProt P25105). As to conditions: cited from earlier work.
The test system of data set [13] is receptors for lysophosphatidic acid (LPA). The settings on record: cited from earlier work.
The subject of data set [14] is SK3-expressing cells. The settings on record: in vivo; cited from earlier work.
The conditions of data set [15]: rodents; no observable tissue damage by a pathologist; cited from earlier work.
Data set [16] deals with MDA-MB-231, HCT116, PC3, HaCaT and fibroblasts. The settings on record: 25 μM for 48 h; cited from earlier work.
Data set [17] deals with PC3. Description: MTT cell viability test, PC3. Format: cell-based. The settings on record: Homo sapiens, PC-3, 72 h, up to 3 days, read-out: tumor cell viability. On the procedure: (§1) Ohmline nanoparticles were used to deliver docetaxel into different cancer cell lines. Cell viability was determined using tetrazolium salt reduction method (MTT)(CyQUANT™ MTT Cell Viability Assary, Thermo Fisher Scientific product V13154: https://www.thermofisher.com/order/catalog/product/V13154?ef_id=4431670897231bd9f4af0 436727d3335: G: s&s_kwcid=AL!3652!10!77240846955634!77240903742099&cid=bid_pca_i va_r01_co_cp1359_pjt0000_bid00000_Ose_bng_nt_pur_con&msclkid=4431670897231bd9f 4af0436727d3335 #/V13154), that reflects the number of viable cells. 6500 cells were seeded at day=0 in a 48 wells plate. Each well was filled up with the regular medium of the cancer cell. At day=1 the medium was aspirated and replaced with new media for each formulation to be tested. Cells were incubated up to 3 days.
(§2) At the end of the incubation, the medium was aspirated and replaced with MTT solution at 0.5 mg/ml concentration. The plate was incubated at 37° C. by 30-45 min. After incubation the supernatant was aspirated, and the formed crystals dissolved with DMSO and gently agitation at room temperature protected from the light. 200 μl were transferred from each well to 96 well plates to measure the absorbance at 570 nm. (see FIGS. 8A, 8B and 8C).
(§3) Ohmline control at 1 and 5 μM, in MLV formulation.
(§4) DOX is docetaxel at 0,5 and 1 nM, in DMSO. […]
(In general: Tetrazolium assays rely on reduction of a dye to a coloured formazan, in cell work by metabolically active cells.)

Data set [18] has as its system MDA MB 435. Description: MTT cell viability test, MDA MB 435. The settings on record: Homo sapiens, 72 h, up to 3 days, read-out: tumor cell viability. The format is cell-based. On the procedure: as §1, §2, §3, §4
Data set [19] concerns MCF7. Description: MTT cell viability test, MCF7. As to conditions: Homo sapiens, 72 h, up to 3 days, read-out: tumor cell viability. Format: cell-based. On the procedure:
as §1, §2, §3, §4

Data set [20] has as its system MDA MB 231. The data set is described as follows: MTT cell viability test, MDA MB 231. The format is cell-based. As to conditions: Homo sapiens, 72 h, up to 3 days, read-out: tumor cell viability. On the procedure:
as §1, §2, §3, §4

The test system of data set [21] is SW620. Description: MTT cell viability test, SW620. The format is cell-based. As to conditions: Homo sapiens, SW-620, 72 h, up to 3 days, read-out: tumor cell viability. On the procedure:
as §1, §2, §3, §4

Molecules are shown by their SMILES. pIC50: −log10 of the molar value.

Chain of receptors for platelet activating factor (PAF) (P25105 whole entry): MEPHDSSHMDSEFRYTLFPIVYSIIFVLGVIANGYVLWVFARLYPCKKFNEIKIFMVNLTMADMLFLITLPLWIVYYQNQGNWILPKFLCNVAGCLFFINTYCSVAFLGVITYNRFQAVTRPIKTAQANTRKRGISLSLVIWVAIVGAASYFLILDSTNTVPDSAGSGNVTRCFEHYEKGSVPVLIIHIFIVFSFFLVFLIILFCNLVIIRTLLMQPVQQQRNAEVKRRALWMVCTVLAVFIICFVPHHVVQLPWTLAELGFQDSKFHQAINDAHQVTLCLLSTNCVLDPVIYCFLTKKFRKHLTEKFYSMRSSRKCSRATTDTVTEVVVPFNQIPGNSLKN

In the case of `CCCCCCCCCCCCCCCCOCC(COC1OC(CO)C(OC2OC(CO)C(O)C(O)C2O)C(O)C1O)OC` (centres unmarked) [Ohmline, 1-O-hexadecyl-2-O-methyl-sn-glycero-3-lactose], the distribution to brain entry in data set [1] is reported as “able to cross the blood brain barrier”. For the same compound, the “reduction of migration of SK3-expressing cancer cells (efficiency)” value in data set [2] is listed as 50%. The mutagenic potential result in data set [3] was “no mutagenic potential”. Further, the micronuclei test effect entry in [4] (at 100 μM) is reported as “weak positive effect”. Besides, the “in vitro concentrations with no toxicity or genotoxicity” value in data set [4] (concluded from Ames and micronuclei tests) is “lower than 10 μM”. For the same compound, in [5] (after the end of administration), the persistence in brain result was “present in brain still two weeks after the end of its administration”. Further, in data set [5] (stomach, intestine, kidney, liver, heart and brain), the incorporation in tissues entry is “incorporated in the tissues tested”. Moreover, the acute toxicity result in data set [6] is listed as “no acute toxicity”. Also, the pIC50 in [7] (SK3 channel) is 6.52. In data set [7], the “potency SK3 versus SK1 channel” value was “greater for SK3 channel than for SK1 channel”. Besides, in data set [8], the “effect on IKCa/SK4 channel” value was “did not affect”. The “effect on SK2 channel” value in data set [9] is given as “only slightly but not significantly affected”. Further, the “displacement of apamin from SKCa channels” value in [10] is listed as “did not displace”. Besides, in data set [11], the “effect on protein kinase C (PKC)” value is “no effect”. Also, in [12], the “effect on receptors for platelet activating factor (PAF)” value is reported as “no effect”. The “effect on receptors for lysophosphatidic acid (LPA)” value in [13] is “no effect”. Besides, the metastasis development entry in [14] was “reduce not only bone metastasis development but also lung and lymph node metastases”. In addition, the tolerance and safety entry in data set [15] is “good tolerance and an apparent safety”.
For the compound `CCCCCCCCCCCCCCCCCCOCC(COP(=O)([O-])OCC[N+](C)(C)C)OC` (centres unmarked) [Edelfosine], in data set [16], the cells still alive is recorded as roughly 0%.
As for `CC(=O)O[C@@]12CO[C@@H]1C[C@H](O)[C@@]1(C)C(=O)[C@H](O)C3=C(C)[C@@H](OC(=O)[C@H](O)[C@@H](NC(=O)OC(C)(C)C)c4ccccc4)C[C@@](O)([C@@H](OC(=O)c4ccccc4)[C@H]21)C3(C)C` [DOX, docetaxel], the viability at 0.0005 µM in data set [17] (DOX 0.5 nM in DMSO) was determined as 79%; in data set [18] (DOX 0.5 nM in DMSO), 100%; in data set [19] (DOX 0.5 nM in DMSO), 97%; in data set [20] (DOX 0.5 nM in DMSO), 72%; in data set [21] (DOX 0.5 nM in DMSO), 99%. For the same compound, the viability at 0.001 µM turned out to be 73% in [17] (DOX 1 nM in DMSO); 69% in data set [18] (DOX 1 nM in DMSO); 84% in data set [19] (DOX 1 nM in DMSO); 73% in [20] (DOX 1 nM in DMSO); 92% in [21] (DOX 1 nM in DMSO).

The term pIC50 denotes −log10 of the IC50, conventionally taken in molar units. Broadly, the viability is a per cent measure of how many cells are alive, often set against a control.
